Reference: patent EP4454710A1, “BISPECIFIC FUSION PROTEINS WITH IMMUNOSUPPRESSIVE ACTIVITY” (Universitat de Barcelona, priority 2023, dated 2024)

Key:
Type in all cases: cell-based, human
Conditions in all cases: Tacrolimus 10 ng/mL (Table 3); 7 days MLR; mean +/- SD
CD3^+CD4^+ cells = experiment: In vitro T cell proliferation assay (allogenic PBMC co-culture, MLR), CD3+CD4+ cells
Source text: (§1) Frozen PBMC were thawed in RPMI medium (Gibco, Thermofisher scientific, Waltham, Massachusetts, USA) with 20% fetal bovine serum (Cytiva, Little Chalfont, Buckinghamshire, United Kingdom). 200 000 PBMC from an individual, stained with CelltraceTM Violet Dye (Thermofisher scientific), were cocultured with 200 000 PBMC from another individual stained with CelltraceTM Farr Red Dye (Thermofisher Scientific) in RPMI medium supplemented with 10 % FBS and penicilline-streptomycine (Cultek, Madrid, Spain) for 7 days. […] Cells were analyzed using a LSRFortessaTM flow cytometer with DIVA (BD Biosciences) and FlowJo Softwares (Tree Star, Ashland, OR, USA). For each condition, we assessed the proportion of PBMC with low Violet or Farr Red dye staining among CD3^+ cells, C3^+CD4^+ cells and CD3^+CD4^+PD-1^+ cells and proceeded to normalization to the MLR without drug condition.

CD3^+CD4^+PD-1^+ cells = experiment: In vitro T cell proliferation assay (allogenic PBMC co-culture, MLR), CD3+CD4+PD-1+ cells
Source text: as §1

CD3^+ cells = experiment: In vitro T cell proliferation assay (allogenic PBMC co-culture, MLR), CD3+ cells
Source text: as §1

C=CC[C@@H]1/C=C(\C)C[C@H](C)C[C@H](OC)[C@H]2O[C@@](O)(C(=O)C(=O)N3CCCC[C@H]3C(=O)O[C@H](/C(C)=C/[C@@H]3CC[C@@H](O)[C@H](OC)C3)[C@H](C)[C@@H](O)CC1=O)[C@H](C)C[C@@H]2OC [Tacrolimus]
Proliferation of CD3^+CD4^+ cells (% of proliferation compared with the condition without drug) (CD3^+CD4^+ cells): 23.34 +/- 20.03% | Proliferation of CD3^+CD4^+PD-1^+ cells (% of proliferation compared with the condition without drug) (CD3^+CD4^+PD-1^+ cells): 25.65 +/-20.39% | Proliferation of CD3^+ cells (% of proliferation compared with the condition without drug) (CD3^+ cells): 19.35 +/- 14.78%
